Read-outs that look alike come from different tables or passages of the source.
Tests used:
[1] = tested on: multiple myeloma cell line U266B1; assay: U266 Cell Viability Assay; format: cell-based; conditions: Homo sapiens, U-266; U266B1 cells, 48 hours, Celltiter-Glo; read-out: 48 hr U266 Viability Celltiter-Glo: Mean EC50
Outline: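 Viability is measured as luciferase signal from CellTiter-Glo following a 48-hour incubation with compound at 37° C. under 5% CO2. Where structures lack drawn stereochemistry, values refer to stereoisomer mixtures.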

[2] = tested on: multiple myeloma cell line NCI-H929; assay: H929 Cell Viability Assay; format: cell-based, human; conditions: Homo sapiens; NCI-H929 cells, 48 hours, Celltiter-Glo; read-out: 48 hr H929 Viability Celltiter-Glo: Mean EC50
Outline: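 Viability is scored by CellTiter-Glo luminescence following a 48-hour treatment at 37° C. Data for structures shown without stereochemistry refer to stereoisomer mixtures.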

[3] = Liver Microsome Stability Assay, monkey; format: in vitro ADME; conditions: monkey liver microsomes 1.0 mg/mL, 1.0 uM compound, 37° C., 1 mM NADPH
Outline: (§1)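 Compound at 1.0 uM (0.4% DMSO) was incubated at 37° C with 1.0 mg/mL liver microsomes in 0.1 M potassium phosphate, with or without 1 mM NADPH. Samples were quenched at 0 and 30 minutes.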

[4] = tested on: PD1-ss+10aa/Gaussia Luciferase; assay: Dox-Induced PD1-ss-Gluc Assay; format: cell-based; conditions: Flp-In 293 T-REx cells, 24 hours with doxycycline, read-out: 24 hr Dox Inducible PD1ssGluc 293FRT/TO: Mean IC50
Outline: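 Flp-In 293 T-REx, stable line; Tet-regulated PD1-ss+10aa fused to Gaussia luciferase; plated day prior; cpd + doxycycline in DMSO/media; 37 °C, 5% CO2.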

[5] = Liver Microsome Stability Assay, human; format: in vitro ADME; conditions: human liver microsomes 1.0 mg/mL, 1.0 uM compound, 37° C., 1 mM NADPH
Outline: as §1

[6] = tested on: TNFα-FL/Gaussia Luciferase; assay: Dox Induced TNFα-FL-Gluc Assay; format: cell-based; conditions: Table 3
Source text: (§2) Flp-In 293 T-REx™ cells were transfected with pcDNA™5/FRT/TO plasmid inserted with cDNA encoding Gaussia Luciferase fused to the 3′ end of cDNA encoding full length TNFα (amino acids 1-233). Transfected cells were selected for resistance to the selectable markers Hygromycin and Blasticidin to create a stable cell line that contained the TNFα-FL/Gaussia Luciferase cDNA insert whose expression was regulated under the T-REx™ system. The day before assay, cells were trypsinized and plated in 384-well tissue culture plates. The next day, compound dilutions in DMSO/media containing doxycycline were added to the wells and incubated at 37° C., 5% CO2.
(§3) For chemical structures that include one or more stereoisomers, but are illustrated without indicating stereochemistry, the assay data refers to a mixture of stereoisomers.

[7] = Liver Microsome Stability Assay, mouse; format: in vitro ADME; conditions: mouse liver microsomes 1.0 mg/mL, 1.0 uM compound, 37° C., 1 mM NADPH
Outline: as §1

[8] = tested on: IL-2-FL/Gaussia Luciferase; assay: Dox Inducible IL2-FL-Gluc Assay; format: cell-based; conditions: for IC50: Flp-In 293 T-REx cells, 24 hours with doxycycline, read-out: 24 hr Dox Inducible IL2FLGluc 293FRT/TO: Mean IC50; for 24 hr Dox Inducible IL2FLGluc 293FRT/TO: IL2/PD1: ratio of IC50s IL2/PD1
Outline: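 Doxycycline induces an IL-2(1-153)–Gaussia luciferase fusion in a stable Flp-In 293 T-REx line. Compound exposure runs alongside induction at 37° C.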

[9] = Liver Microsome Stability Assay, rat; format: in vitro ADME; conditions: rat liver microsomes 1.0 mg/mL, 1.0 uM compound, 37° C., 1 mM NADPH
Outline: as §1

[10] = tested on: HER3-ss+4aa/Gaussia Luciferase; assay: Dox-Inducible Her3-ss-Gluc Assay; format: cell-based; conditions: Flp-In 293 T-REx cells, 24 hours with doxycycline; Table 3; read-out: 24 hr Dox Inducible Her3(ss + 4)Gluc 293FRT/TO: Mean IC50
Source text: as §2, with “HER3 signal sequence plus 4 amino” for “full length TNFα (amino”, “(N-[…]-C) (SEQ ID NO: 2).” for “1-233).”, “HER3-ss+4aa/Gaussia” for “TNFα-FL/Gaussia”
as §3

CD47(ss + 10)Gluc = assay: Dox-Induced CD47-ss-Gluc Assay; format: cell-based; conditions: Flp-In 293 T-REx cells, 24 hours with doxycycline; Table 1; read-out: 24 hr Dox Inducible CD47(ss + 10)Gluc 293FRT/TO: Mean IC50
[11] = tested on: IL6R-ss+10aa/Gaussia Luciferase; assay: Dox-induced IL-6R-ss-Gluc Assay; format: cell-based; conditions: Table 1; for IC50: Flp-In 293 T-REx cells, 24 hours with doxycycline, read-out: 24hr Dox Inducible IL6R(ss + 10)Gluc 293FRT/TO: Mean IC50; for 24hr Dox Inducible IL6R(ss + 10)Gluc 293FRT/TO: IL6R/PD1: ratio of IC50s IL6R/PD1
Outline: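 Flp-In 293 T-REx cells stably carrying a doxycycline-inducible IL6R signal sequence+10 aa fused to Gaussia luciferase. Cells plated the day before; compound dilutions added in DMSO/media containing doxycycline and incubated at 37 °C, 5% CO2.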

Structure (SMILES) | EC50 [1] | EC50 [2] | Liver Microsome Stability (Multiple Species): Monkey - % Remaining after 30 min w/ NADPH (%) [3] | IC50 ([4]; Table 3) | Liver Microsome Stability (Multiple Species): Human - % Remaining after 30 min w/ NADPH (%) [5] | IC50 ([6]; Flp-In 293 T-REx cells, 24 hours with doxycycline, read-out: 24 hr Dox Inducible TNFaFLGluc 293FRT/TO: Mean IC50) | Liver Microsome Stability (Multiple Species): Mouse - % Remaining after 30 min w/ NADPH (%) [7] | IC50 ([8]; Table 3) | Liver Microsome Stability (Multiple Species): Rat - % Remaining after 30 min w/ NADPH (%) [9] | IC50 [10] | IC50 (CD47(ss + 10)Gluc) | IC50 [11] | IC50 ([4]; Table 1) | IC50 ([8]; Table 1) | 24 hr Dox Inducible TNFaFLGluc 293FRT/TO: TNF/PD1 ([6]; ratio of IC50s TNF/PD1) | 24 hr Dox Inducible IL2FLGluc 293FRT/TO: IL2/PD1 ([8]; Table 3) | 24hr Dox Inducible IL6R(ss + 10)Gluc 293FRT/TO: IL6R/PD1 [11] | 24 hr Dox Inducible IL2FLGluc 293FRT/TO: IL2/PD1 ([8]; Table 1)
O=C(Nc1nc(/C=C/c2ncn(C3CC3)c2Cl)cs1)c1cc(Cl)cn1Cc1ccnc(F)c1 [Compound A12] | > 25 µM | 10.2 µM | 5% | 0.011 µM | 8% | 8.54 µM | 78% | 1.53 µM | 17% | 1.15 µM |  |  |  |  | 807 | 150 |  | 
N[C@H]1CC[C@H](/C=C/c2csc(NC(=O)c3cccn3Cc3ccncc3)n2)CC1 [Compound B18, N-(4-((E)-2-((1r,4r)-4-aminocyclohexyl)vinyl)thiazol-2-yl)-1-(pyridin-4-ylmethyl)-1H-pyrrole-2-carboxamide] | > 25 µM | > 25 µM | <1% |  | <1% |  | 45% |  | 6% |  | > 25 µM | 9.91 µM | 11.3 µM | > 25 µM |  |  | 1 | >2.2
N#Cc1ocnc1/C=C/c1csc(NC(=O)c2cccn2Cc2ccnc(F)c2)n1 [Compound B19, (E)-N-(4-(2-(5-cyanooxazol-4-yl)vinyl)thiazol-2-yl)-1-((2-fluoropyridin-4-yl)methyl)-1H-pyrrole-2-carboxamide] | > 25 µM | > 25 µM | 6% |  | 7% |  | 22% |  | 1% |  | > 25 µM | > 25 µM | 0.318 µM | > 25 µM |  |  | >79 | >79
CC(C)n1cnc(/C=C/c2csc(NC(=O)c3cccn3Cc3ccnc(F)c3)n2)c1C#N [Compound B20, (E)-N-(4-(2-(5-cyano-1-isopropyl-1H-imidazol-4-yl)vinyl)thiazol-2-yl)-1-((2-fluoropyridin-4-yl)methyl)-1H-pyrrole-2-carboxamide] | 15.7 µM | 8.36 µM | <1% |  | <1% |  | 5% |  | 33% |  | 1.52 µM | 1.32 µM | 0.009 µM | 1.53 µM |  |  | 146 | 170.0

Now from value to compound, other results behind:

EC50 [1] | EC50 [2] | Liver Microsome Stability (Multiple Species): Monkey - % Remaining after 30 min w/ NADPH (%) [3] | IC50 ([4]; Table 3) | Liver Microsome Stability (Multiple Species): Human - % Remaining after 30 min w/ NADPH (%) [5] | IC50 ([6]; Flp-In 293 T-REx cells, 24 hours with doxycycline, read-out: 24 hr Dox Inducible TNFaFLGluc 293FRT/TO: Mean IC50) | Liver Microsome Stability (Multiple Species): Mouse - % Remaining after 30 min w/ NADPH (%) [7] | IC50 ([8]; Table 3) | Liver Microsome Stability (Multiple Species): Rat - % Remaining after 30 min w/ NADPH (%) [9] | IC50 [10] | IC50 (CD47(ss + 10)Gluc) | IC50 [11] | IC50 ([4]; Table 1) | IC50 ([8]; Table 1) | Structure (SMILES) | 24 hr Dox Inducible TNFaFLGluc 293FRT/TO: TNF/PD1 ([6]; ratio of IC50s TNF/PD1) | 24 hr Dox Inducible IL2FLGluc 293FRT/TO: IL2/PD1 ([8]; Table 3) | 24hr Dox Inducible IL6R(ss + 10)Gluc 293FRT/TO: IL6R/PD1 [11] | 24 hr Dox Inducible IL2FLGluc 293FRT/TO: IL2/PD1 ([8]; Table 1)
24.2 µM | 17.5 µM | <1% |  | <1% |  | 11% |  | 20% |  | > 25 µM | > 25 µM | 0.065 µM | > 25 µM | [2H]c1nc(/C=C/c2csc(NC(=O)c3cccn3Cc3ccnc(F)c3)n2)cn1C(C)C [Compound B21] |  |  | >385 | >380
> 25 µM | > 25 µM | <1% |  | 9% |  | 41% |  | 1% |  | > 25 µM | > 25 µM | > 25 µM | > 25 µM | O=C(Nc1nc(/C=C/C2CCOC2)cs1)c1cccn1Cc1ccnc(F)c1 (stereo not shown) [Compound B22, (E)-1-((2-fluoropyridin-4-yl)methyl)-N-(4-(2-(tetrahydrofuran-3-yl)vinyl)thiazol-2-yl)-1H-pyrrole-2-carboxamide] |  |  |  | 
> 25 µM | > 25 µM | 8% |  | 27% |  | 40% |  | 3% |  | 1.03 µM | 0.892 µM | 0.144 µM | 1.04 µM | O=C(Nc1nc(/C=C/c2ccc3occc3c2)cs1)c1cccn1Cc1ccnc(F)c1 [Compound B27, (E)-N-(4-(2-(benzofuran-5-yl)vinyl)thiazol-2-yl)-1-((2-fluoropyridin-4-yl)methyl)-1H-pyrrole-2-carboxamide] |  |  | 6 | 5.2
> 25 µM | 15 µM | 22% |  | 70% |  | 72% |  | 39% |  | 1.01 µM | 1.2 µM | 0.172 µM | 1.09 µM | O=C(Nc1nc(/C=C/c2cccc(F)c2)cs1)c1cccn1Cc1ccnc(F)c1 [Compound B28, (E)-1-((2-fluoropyridin-4-yl)methyl)-N-(4-(3-fluorostyryl)thiazol-2-yl)-1H-pyrrole-2-carboxamide] |  |  | 7 | 6.1
